# Results published in patent publication US20240239743A1, “1-(4-{1-[(E)-4-CYCLOHEXYL-3-TRIFLUOROMETHYLBENZYLOXYIMINO]-ETHYL}-2-ETHYL-BENZYL)-AZETIDINE-3-CARBOXYLIC ACID, (E)-BUT-2-ENEDIOIC ACID” (Novartis AG, priority 2008, published 2024).
# Tests used:
# [1] = Stability of hemifumarate salt solution relative to free base solution at elevated temperature; type: physicochemical; conditions: solution/suspension in ethanol; 40° C., 50° C. and 60° C. for one week; compared with free base
# Procedure: 30 g of compound I was prepared using the method of Example 3 of WO2004/103306. The hemifumarate salt of the invention was then prepared by reacting a suspension of 30.0 g of compound I and […] fumaric acid (5% conc.) in 200 g ethanol absolute (>99.9%) at room temperature (25° C.).
# The stability of the hemifumarate salt solution relative to the free base solution was then tested by subjecting both solutions to conditions of elevated temperature (40° C., 50° C. and 60° C.) for a period of one week.
# [2] = pressure of 10 tons for 5 minutes; Raman microscope
# Procedure: Crystalline form A was also tested for pressure stability by exposing a few milligrams of this form to a pressure of 10 tons for 5 minutes.
# [3] = Dynamic Vapour Sorption (hygroscopicity); type: physicochemical; conditions: 50-0-95-50% r.h.
# From the text: Dynamic Vapour Sorption measurements were taken using a DVS-1 water vapour sorption analyzer (Surface Measurement Systems Ltd.) or a Projekt Messtechnik SPS11-100n. The sample was allowed to equilibrate at 50% r.h. before starting a pre-defined humidity program (50-0-95-50% r.h., scanning with 5% Δr.h. hour-1 and with several isohumid equilibration periods).
SMILES,stability of the hemifumarate salt solution relative to the free base solution [1],pressure stability (change in crystal form) [2],hygroscopicity [3]
"CCc1cc(/C(C)=N/OCc2ccc(C3CCCCC3)c(C(F)(F)F)c2)ccc1CN1CC(C(=O)O)C1.O=C(O)/C=C/C(=O)O [hemifumarate salt, 1-(4-{1-[(E)-4-Cyclohexyl-3-trifluoromethyl-benzyloxyimino]-ethyl}-2-ethyl-benzyl)-azetidine-3-carboxylic acid, (E)-but-2-enedioic acid]",superior stability,–,–
CCc1cc(/C(C)=N/OCc2ccc(C3CCCCC3)c(C(F)(F)F)c2)ccc1CN1CC(C(=O)O)C1.CCc1cc(/C(C)=N/OCc2ccc(C3CCCCC3)c(C(F)(F)F)c2)ccc1CN1CC(C(=O)O)C1.O=C(O)/C=C/C(=O)O [Crystalline Form A],–,no change in form was observed,low hygroscopicity
